Test results taken from the CheMixHub viscosity set.

Assay: xn = mol fraction of the nth substance listed

CCCCC(CC)COP(=O)(OCC(CC)CCCC)OCC(CC)CCCC (centres undefined) + CCCCCCC
viscosity [mPa·s], 101 kPa
Conditions	x1 = 0.0981	x1 = 0.2035	x1 = 0.2861	x1 = 0.4005	x1 = 0.4721	x1 = 0.5804	x1 = 0.7028	x1 = 0.8061	x1 = 0.9053
298.15 K	0.691	1.161	1.648	2.531	3.204	4.44	6.106	7.818	9.599
303.15 K	0.645	1.071	1.509	2.267	2.848	3.886	5.277	6.674	8.111
308.15 K	0.604	0.992	1.377	2.046	2.547	3.434	4.599	5.747	6.914

CCCCN + Cc1cccc(C)c1
303.15 K, 101 kPa
Conditions	viscosity [mPa·s]
x1 = 0.0824	0.525
x1 = 0.1495	0.516
x1 = 0.2739	0.497
x1 = 0.387	0.484
x1 = 0.4543	0.476
x1 = 0.5525	0.469
x1 = 0.6484	0.462
x1 = 0.7553	0.457
x1 = 0.816	0.453
x1 = 0.8978	0.448
x1 = 0.9469	0.445

CCCCN + CCC(C)O
303.15 K, 101 kPa
Conditions	viscosity [mPa·s]
x1 = 0.01013	2.438
x1 = 0.02003	2.41
x1 = 0.03045	2.381
x1 = 0.03818	2.364
x1 = 0.05108	2.332
x1 = 0.05904	2.313
x1 = 0.07204	2.283
x1 = 0.08279	2.26
x1 = 0.09543	2.229

Cc1ccncc1 + CCCO
298.15 K, 101.33 kPa
Conditions	viscosity [mPa·s]
x2 = 0.091	0.9024
x2 = 0.2095	0.9381
x2 = 0.3419	1.007
x2 = 0.4177	1.071
x2 = 0.5662	1.168
x2 = 0.7017	1.327
x2 = 0.7646	1.405
x2 = 0.8291	1.52
x2 = 0.867	1.591

CCCC(=O)OCC + CCCCCC
303.15 K, 101 kPa
Conditions	viscosity [mPa·s]
x1 = 0.1354	0.3067
x1 = 0.2995	0.3404
x1 = 0.3884	0.3564
x1 = 0.4879	0.388
x1 = 0.7244	0.4602

O=[N+]([O-])c1ccc(O)cc1 + CCN(CC)CC
298.16 K, 101 kPa
Conditions	viscosity [mPa·s]
x1 = 0.5818	294.3
x1 = 0.5939	366.2
x1 = 0.6179	606.8
x1 = 0.6393	908.7
x1 = 0.6718	2449
x1 = 0.6969	3733
x1 = 0.7221	6669
x1 = 0.739	7410
x1 = 0.7731	8242
x1 = 0.7883	7522
x1 = 0.8008	6867
x1 = 0.8106	6269

CCCCN + O=C1CCCCC1
Conditions	viscosity [mPa·s]
298.15 K, 101 kPa, x2 = 0.0765	0.623
298.15 K, 101 kPa, x2 = 0.157	0.754
298.15 K, 101 kPa, x2 = 0.2421	0.903
298.15 K, 101 kPa, x2 = 0.3319	1.06
298.15 K, 101 kPa, x2 = 0.427	1.223
298.15 K, 101 kPa, x2 = 0.5278	1.392
298.15 K, 101 kPa, x2 = 0.6349	1.563
298.15 K, 101 kPa, x2 = 0.7488	1.725
298.15 K, 101 kPa, x2 = 0.8702	1.88
303.15 K, 101.33 kPa, x1 = 0.1251	2.752
303.15 K, 101.33 kPa, x1 = 0.2012	2.984
303.15 K, 101.33 kPa, x1 = 0.2448	3.075
303.15 K, 101.33 kPa, x1 = 0.3617	3.092
303.15 K, 101.33 kPa, x1 = 0.5296	2.811
303.15 K, 101.33 kPa, x1 = 0.6105	2.592
303.15 K, 101.33 kPa, x1 = 0.7626	1.94
303.15 K, 101.33 kPa, x1 = 0.887	1.202

CCC(=O)OCCN1CCNCC1 + CCO
Conditions	viscosity [mPa·s]
293.15 K, 100 kPa, x1 = 0.1216	37.45

CCCCN + CCCCCCCC
303.15 K, 101.33 kPa
Conditions	viscosity [mPa·s]
x1 = 0.1275	0.462
x1 = 0.2962	0.441
x1 = 0.4015	0.433
x1 = 0.5214	0.428
x1 = 0.6438	0.42
x1 = 0.7573	0.434
x1 = 0.9231	0.478

CCCC(=O)OCC(COC(=O)CCC)OC(=O)CCC + CCCCCCO
viscosity [mPa·s], 101.33 kPa
Conditions	x1 = 0.1	x1 = 0.2	x1 = 0.3	x1 = 0.4	x1 = 0.5	x1 = 0.6	x1 = 0.7	x1 = 0.8	x1 = 0.9
298 K	4	4.09	4.3	4.65	5.05	5.56	6.15	6.84	7.68
303 K	3.47	3.54	3.72	4	4.36	4.8	5.27	5.86	6.54
308 K	3.02	3.08	3.26	3.49	3.79	4.15	4.57	5.07	5.63
313 K	2.65	2.71	2.85	3.07	3.33	3.64	4	4.42	4.9
